The values below come from patent US4708966A, “Novel anti-inflammatory agents, pharmaceutical compositions and methods for reducing inflammation” (The Procter & Gamble Company, priority 1986, dated 1987).

Assay [1] concerns carrageenan rat paw edema. Description: Carrageenan Rat Paw Edema Test. The assay is classed as in vivo, Male Sprague-Dawley rats. The conditions noted are these: for ED35: 4 h, oral, by regression analysis, read-out: ID35; for inhibition in vivo at 100 mg/kg: po, 100 mg/kg P.O., paw volume 4 h after carrageenan, vs control group, read-out: Percent Inhibiton at 100 mg/kg dose P.O. As to the method: Carrageenan Rat Paw Edema Test
Male Sprague-Dawley rats (Charles River Laboratories) are weighed and food fasted overnight. The animals are then divided into four to six groups of six animals each according to body weights (average about 145 g) so that each group has about the same average body weight (within 10 g).
The following morning animals are dosed with the test compound and then placed in individual cages. For oral dosing, the drug is suspended in 0.5% methyl cellulose with 2% Tween 80, and delivered via stomach tube in a 5 ml volume.
Paw volumes (0 time) are determined on both hind paws with a mercury displacement device equipped with a transducer and digitizer. One hour after dosing the test compound, the animals are placed in a plastic restrainer and 50 ul of a 1% (w/w) carrageenan solution in 0.9% saline is injected into the ventral surface of the left rear paw. Four hours after the carrageenan injection, the paw volumes are again determined.
The results are expressed as percent inhibition of the mean paw volume of the test group relative to the control group. Statistical differences are determined by one way analysis of variance. ID35 values are determined by regression analysis.

For assay [2], the system named is arachidonic acid-induced inflamed mouse ear. Description: Arachidonic Acid-Induced Inflamed Mouse Ear Test. The conditions noted are these: for inhibition in vivo at 50 µg/ear: Mus musculus, 50 ug/ear topical, 3 hours, read-out: Percent Inhibition at 50 ug/ear topical dose; for ID50: topical, by regression analysis. The assay is classed as in vivo, Adult male Cox ICR mice. As to the method: Arachidonic Acid-Induced Inflamed Mouse Ear Test
All drugs are dissolved with arachidonic acid in the vehicle. At the end of 3 hours, animals are sacrificed by cervical dislocation and both ears are removed. A 5 mm punch biopsy is removed from both ears and is weighed to the nearest 0.1 mg on a Cahn electrobalance. Ten animals are used per group. The study usually consists of 4 to 6 groups, of which one is a control group which is treated on the left ear with only arachidonic acid in the vehicle. The results are expressed as percent inhibition of the swelling response compared to the control group. Statistical tests for significance between groups are made using a one way analysis of variance of the ear weight differences. ID50 values are determined by regression analysis.

Assay [3] deals with oxazolone-induced inflamed mouse ear. Description: Oxazolone-Induced Inflamed Mouse Ear Test (Ox-IMET). The assay is classed as in vivo, Adult male Cox ICR mice. The settings on record: topical, 25 ul of 10% in ethanol, 24 h after challenge, vs control group, read-out: Percent Inhibition. As to the method:
Oxazolone-Induced Inflamed Mouse Ear Test ("Ox-IMET")
Adult male Cox ICR mice, 25-35 g, are sensitized by applying 3% oxazolone in olive oil to the clipped abdomen of each animal using a cotton swab. One week later, the mice are challenged on the inner surface of the left ear with 3% oxazolone in aceotone. At the same time 25 ul of the test compound (10% in ethanol) is applied to the outer surface of the same ear. Twenty four hours after the challenge, the animals are sacrificed by cervical dislocation and both ears are removed. A 5 mm punch biopsy is removed from both ears and is weighed to the nearest 0.1 mg on a Cahn electrobalance. Ten animals are used per group. The study usually consists of 4 to 6 groups, of which one is a control group which is challenged on the left ear, but is not treated with a test compound. The results are expressed as percent inhibition of the swelling response compared to the control group. Statistical tests for significance between groups are made using a one way analysis of variance of the ear weight differences.

Assay [4] has as its system adjuvant arthritis (modified Freund's adjuvant). Description: Adjuvant Arthritis - Therapeutic. The assay is classed as in vivo, Male Sprague-Dawley rats. The settings on record: 0.5 mg/kg, 1 x/day, oral, days 20 through 28. As to the method:
Adjuvant Arthritis Methodology
Male Sprague-Dawley rats weighing 167-170 gm are allowed to acclimate to the laboratory for at least 3 days. Ten rats are then assigned to the healthy control group and the remaining rats are assigned to the arthritic group. On day 0, the rats in the arthritic group are injected subcutaneously in the middle of their tail with a modified Freund's adjuvant (MFA) at a dosage of 0.05 ml/100 gm body weight. The MFA is made by grinding Mycobacterium butyricum (Mb) and then mixing with mineral oil at a concentration of 10 mg Mb/ml of mineral oil. This is mixed in an Omni mixer for 45 minutes.
Paw volumes and body weights are determined on days -1, 6, 13, 19, 26, and 29. On day 19, paw volume changes from day -1 are determined for the arthritic group. The rats with paw volume changes≥0.50 ml but ≤2.50 ml are randomized by paw volume changes into the treatment groups on day 20. […] On day 29, two representative rats from each treatment group are photographed, paw volumes and body weights are determined, and then the rats are sacrificed with CO2 and x-rays are taken.
The radiographs are used to grade bone resorption. Bone resorption is graded in 20 areas of the fore and hind paws. The areas for grading on the hind paw are: distal femur end, proximal tibia and tibula, distal end of the tibia and the small bone under the tibia, calcaneous, tarsus, and metatarsus. The areas on the fore paws are: radius, ulna, carpus, and metacarpus. Each area is given a grade of 0 (no resorption) or 1 (resorption) for possible grade of 20 of each animal.

With `C#CCCC(C)C(=O)c1cc(C(C)(C)C)c(O)c(C(C)(C)C)c1` (stereo not shown) [Compound 13, 4-(2'-methyl-5'-hexynoyl)-2,6-di-t-butylphenol], in assay [1], the ED35 worked out at 17.9 mg/kg and the inhibition in vivo at 100 mg/kg came out at 69.8%. For the same molecule, in assay [2], the inhibition in vivo at 50 µg/ear came out at 74.4% and the ID50 turned out to be 17.5 ug/ear.

Take `C#CC(=O)/C=C/c1cc(C(C)(C)C)c(O)c(C(C)(C)C)c1` [Compound 27, 4-((E)-1'-penten-4'-yn-3'-one)-2,6-di-t-butylphenol]: in assay [1], the ED35 was 28.3 mg/kg and the inhibition in vivo at 100 mg/kg turned out to be 62.8%. In addition, in assay [2], the inhibition in vivo at 50 µg/ear came out at 34.8% and the ID50 was 52.4 ug/ear.

With `CC(C)(C)c1cc(C(=O)CC2OCCO2)cc(C(C)(C)C)c1O` [Compound 30, 4-(2'-(1",3"-dioxolane)acetyl)-2,6-di-t-butylphenol], in assay [1], the ED35 amounted to 35.2 mg/kg and the inhibition in vivo at 100 mg/kg was 72.8%. In addition, in assay [2], the inhibition in vivo at 50 µg/ear was 69.1% and the ID50 came out at 29.5 ug/ear. Moreover, the inhibition in vivo at 10 % in assay [3] is 33.4%.

For the molecule `COc1ccc2c(c1)c(CC(=O)O)c(C)n2C(=O)c1ccc(Cl)cc1` [Indomethacin, reference compound], in assay [4], the “Body Weights % Increase” value was determined as 7%, the “Bone Resorption % Inhibition” value was 15% and the “Paw Volume % Decrease” value is 43%.
